Values quoted from earlier work in patent publication US6380175B1, “Method for enhancement of delivery of THC by the administration of its prodrugs via the nasal route” (New Millennium Pharmaceutical Research, Inc., priority 1999, dated 2002).

Conditions: room temperature

## CCCCCc1cc(O)c2c(c1)OC(C)(C)C1CCC(C)=CC21 (stereo not shown) [THC, Δ-9-tetrahydrocannabinol]
  aqueous solubility: very poor aqueous solubility
